The results in this text go back to patent US20250195521A1 (Revolution Medicines, Inc., priority 2020, published 2025).

One assay has as its target KRAS G12C (Homo sapiens (Human), UniProt P01116+P62937, G12C). Briefly: Ras-Raf disruption/FRET/MOA assay, KRAS G12C. The assay is classed as biochemical. A digest of the protocol: (§1)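 TR-FRET of nucleotide-loaded (GMP-PNP) His6-Ras (12.5 nM) binding to GST-BRAF RBD (50 nM) with Cyclophilin A (25 μM) in HEPES pH 7.3 buffer; 10-point 3-fold compound series from 30 μM, 3 h at 25 °C, then anti-His Eu/anti-GST APC 1.5 h. IC50 from decreased FRET ratio vs DMSO.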

The next assay concerns AsPC-1 (K-Ras G12D). Kind of assay: Potency assay: pERK. The assay is classed as cell-based, human. As to conditions: Homo sapiens, ASPC1; AsPC-1 KRAS G12D; read-out: pERK EC50. A digest of the protocol:
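pERK decrease measured after 4 h compound treatment at 37 °C (10 three-fold dilutions, duplicate wells), by either fixed-cell In-Cell Western with DRAQ5 counterstain or AlphaLISA on lysates. Signal fitted against log concentration with a four-parameter model to give IC50.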

For the next assay, the target named is KRAS Q61H (Homo sapiens (Human), UniProt P01116+P62937, Q61H). Briefly: Ras-Raf disruption/FRET/MOA assay, KRAS Q61H. The assay is classed as biochemical. An excerpt:
(§2) Disruption of B-Raf Ras-Binding Domain (BRAF^RBD) Interaction with K-Ras by Compounds of the Invention (Also Called a FRET Assay or an MOA Assay)
(§3) Note—The following protocol describes a procedure for monitoring disruption of K-Ras G12C (GMP-PNP) binding to BRAF^RBD by a compound of the invention. This protocol may also be executed substituting other Ras proteins or nucleotides, such as K-Ras G12D and K-Ras G13D.
(§4) The purpose of this biochemical assay was to measure the ability of test compounds to facilitate ternary complex formation between a nucleotide-loaded K-Ras isoform and Cyclophilin A; the resulting ternary complex disrupts binding to a BRAF^RBD construct, inhibiting K-Ras signaling through a RAF effector. Data is reported as IC50 values.
(§5) In assay buffer containing 25 mM HEPES pH 7.3, 0.002% Tween20, 0.1% BSA, 100 mM NaCl and 5 mM MgCl2, tagless Cyclophilin A, His6-K-Ras-GMPPNP, and GST-BRAF^RBD were combined in a 384-well assay plate at final concentrations of 25 μM, 12.5 nM, and 50 nM, respectively. Compound was present in plate wells as a 10-point 3-fold dilution series starting at a final concentration of 30 μM. After incubation at 25° C. for 3 hours, a mixture of anti-His Eu—W1024 and anti-GST allophycocyanin was then added to assay sample wells at final concentrations of 10 nM and 50 nM, respectively, and the reaction incubated for an additional 1.5 hours. […] Compounds that facilitate disruption of a K-Ras: RAF complex were identified as those eliciting a decrease in the TR-FRET ratio relative to DMSO control wells.

The target in a further assay is KRAS G12D (Homo sapiens (Human), UniProt P01116+P62937, G12D). Kind of assay: Ras-Raf disruption/FRET/MOA assay, KRAS G12D. The format is biochemical. A digest of the protocol:
as §1

The next assay deals with NRAS Q61K (Homo sapiens (Human), UniProt P01111+P62937, Q61K). Briefly: Ras-Raf disruption/FRET/MOA assay, NRAS Q61K. The assay is classed as biochemical.
Sequence of NRAS Q61K (P01111 whole entry Q61K): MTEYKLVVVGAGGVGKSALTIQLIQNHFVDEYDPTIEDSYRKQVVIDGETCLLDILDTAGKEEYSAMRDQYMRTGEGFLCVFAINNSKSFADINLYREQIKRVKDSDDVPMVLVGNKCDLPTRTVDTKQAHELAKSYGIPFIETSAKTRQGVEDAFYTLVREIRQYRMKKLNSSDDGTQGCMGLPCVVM
Sequence of NRAS Q61K (P62937 whole entry): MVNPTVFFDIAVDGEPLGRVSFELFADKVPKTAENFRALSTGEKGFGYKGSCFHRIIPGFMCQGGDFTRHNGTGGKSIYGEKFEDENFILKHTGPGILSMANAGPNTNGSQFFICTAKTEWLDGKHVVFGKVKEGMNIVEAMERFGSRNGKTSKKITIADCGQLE
Excerpt: as §2, §3, §4, §5

The target of a further assay is NRAS G12C (Homo sapiens (Human), UniProt P01111+P62937, G12C). Kind of assay: Ras-Raf disruption/FRET/MOA assay, NRAS G12C. The format is biochemical. In short, it runs like this: as §1
Sequence of NRAS G12C (P01111 whole entry G12C): as the sequence (P01111 whole entry Q61K) above, with G12C, K61Q counted along it
Sequence of NRAS G12C (P62937 whole entry): as the sequence (P62937 whole entry) above
The target in a further assay is KRAS G12V (Homo sapiens (Human), UniProt P01116+P62937, G12V). Kind of assay: Ras-Raf disruption/FRET/MOA assay, KRAS G12V. The assay is classed as biochemical. A digest of the protocol: as §1
Sequence of KRAS G12V (P01116 other isoform, or with tags, fused parts or gaps G12V): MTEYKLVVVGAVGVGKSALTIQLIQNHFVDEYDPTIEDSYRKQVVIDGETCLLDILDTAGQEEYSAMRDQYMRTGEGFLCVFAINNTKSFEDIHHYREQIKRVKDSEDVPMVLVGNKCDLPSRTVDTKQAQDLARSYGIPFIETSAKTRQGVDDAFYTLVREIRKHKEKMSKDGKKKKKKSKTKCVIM
Sequence of KRAS G12V (P62937 whole entry): as the sequence (P62937 whole entry) above
A further assay addresses KRAS G13C (Homo sapiens (Human), UniProt P01116+P62937, G13C). Kind of assay: Ras-Raf disruption/FRET/MOA assay, KRAS G13C. The assay is classed as biochemical. A digest of the protocol: as §1
For another assay, the target named is KRAS WT (Homo sapiens (Human), UniProt P01116+P62937). Briefly: Ras-Raf disruption/FRET/MOA assay, KRAS WT. The assay is classed as biochemical. In short, it runs like this: as §1
Sequence of KRAS WT (P01116 other isoform, or with tags, fused parts or gaps): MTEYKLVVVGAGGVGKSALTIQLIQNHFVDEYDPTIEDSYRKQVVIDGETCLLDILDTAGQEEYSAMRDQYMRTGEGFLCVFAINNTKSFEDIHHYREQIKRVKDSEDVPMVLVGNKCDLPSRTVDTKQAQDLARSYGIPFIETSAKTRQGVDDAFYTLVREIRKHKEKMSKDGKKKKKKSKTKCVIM
Sequence of KRAS WT (P62937 whole entry): as the sequence (P62937 whole entry) above
The next assay addresses NRAS WT (Homo sapiens (Human), UniProt P01111+P62937). Briefly: Ras-Raf disruption/FRET/MOA assay, NRAS WT. The assay is classed as biochemical.
Excerpt: as §2, §3, §4, §5

Another assay addresses KRAS G13D (Homo sapiens (Human), UniProt P01116+P62937, G13D). Briefly: Ras-Raf disruption/FRET/MOA assay, KRAS G13D. The format is biochemical. A digest of the protocol: as §1
A further assay deals with NRAS Q61R (Homo sapiens (Human), UniProt P01111+P62937, Q61R). Briefly: Ras-Raf disruption/FRET/MOA assay, NRAS Q61R. The assay is classed as biochemical.
Sequence of NRAS Q61R (P01111 whole entry Q61R): as the sequence (P01111 whole entry Q61K) above, with K61R counted along it
Sequence of NRAS Q61R (P62937 whole entry): as the sequence (P62937 whole entry) above
Excerpt: as §2, §3, §4, §5

The target of a further assay is KRAS G12S (Homo sapiens (Human), UniProt P01116+P62937, G12S). Kind of assay: Ras-Raf disruption/FRET/MOA assay, KRAS G12S. The assay is classed as biochemical. A digest of the protocol: as §1
Sequence of KRAS G12S (P01116 other isoform, or with tags, fused parts or gaps G12S): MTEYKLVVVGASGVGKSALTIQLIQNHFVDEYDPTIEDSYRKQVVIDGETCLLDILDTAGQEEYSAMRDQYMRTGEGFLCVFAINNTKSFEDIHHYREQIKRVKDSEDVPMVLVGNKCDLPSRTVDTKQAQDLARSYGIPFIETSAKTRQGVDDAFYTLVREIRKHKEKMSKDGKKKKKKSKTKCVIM
Sequence of KRAS G12S (P62937 whole entry): as the sequence (P62937 whole entry) above

The structures appear in SMILES notation.

Sequence of KRAS G13D (P01116 other isoform, or with tags, fused parts or gaps G13D): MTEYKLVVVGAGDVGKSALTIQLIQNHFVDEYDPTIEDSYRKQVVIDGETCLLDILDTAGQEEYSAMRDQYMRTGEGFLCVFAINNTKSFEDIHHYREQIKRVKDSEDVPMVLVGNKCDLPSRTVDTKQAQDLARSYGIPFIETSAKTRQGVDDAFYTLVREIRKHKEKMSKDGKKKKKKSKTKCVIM
Sequence of KRAS G13D (P62937 whole entry): as the sequence (P62937 whole entry) above
Sequence of KRAS Q61H (P01116 other isoform, or with tags, fused parts or gaps Q61H): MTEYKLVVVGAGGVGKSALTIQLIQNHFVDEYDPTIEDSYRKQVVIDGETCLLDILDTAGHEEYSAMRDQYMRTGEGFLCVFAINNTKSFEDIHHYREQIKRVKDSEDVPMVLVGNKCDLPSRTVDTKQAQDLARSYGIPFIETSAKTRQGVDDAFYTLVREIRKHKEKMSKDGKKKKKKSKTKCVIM
Sequence of KRAS Q61H (P62937 whole entry, the tested form may be a part): as the sequence (P62937 whole entry) above
Sequence of KRAS G13C (P01116 other isoform, or with tags, fused parts or gaps G13C): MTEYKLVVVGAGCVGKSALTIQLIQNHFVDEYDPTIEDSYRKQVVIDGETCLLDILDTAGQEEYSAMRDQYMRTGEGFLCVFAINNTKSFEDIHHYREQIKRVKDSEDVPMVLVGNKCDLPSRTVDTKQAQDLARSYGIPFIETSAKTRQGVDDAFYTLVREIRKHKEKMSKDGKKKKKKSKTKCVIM
Sequence of KRAS G13C (P62937 whole entry): as the sequence (P62937 whole entry) above
Sequence of KRAS G12D (P01116 other isoform, or with tags, fused parts or gaps G12D): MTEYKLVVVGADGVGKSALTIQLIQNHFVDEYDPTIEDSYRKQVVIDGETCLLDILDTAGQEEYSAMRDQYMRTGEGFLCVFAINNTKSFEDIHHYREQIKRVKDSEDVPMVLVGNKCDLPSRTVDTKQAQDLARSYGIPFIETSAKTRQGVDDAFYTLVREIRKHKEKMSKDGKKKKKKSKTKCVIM
Sequence of KRAS G12D (P62937 whole entry): as the sequence (P62937 whole entry) above
Sequence of KRAS G12C (P01116-2 other isoform, or with tags, fused parts or gaps G12C): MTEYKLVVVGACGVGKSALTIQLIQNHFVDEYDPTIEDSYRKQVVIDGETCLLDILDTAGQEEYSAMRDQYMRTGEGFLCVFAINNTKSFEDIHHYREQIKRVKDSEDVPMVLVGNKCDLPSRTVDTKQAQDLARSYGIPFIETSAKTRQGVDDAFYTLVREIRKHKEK
Sequence of KRAS G12C (P62937 whole entry): as the sequence (P62937 whole entry) above
Sequence of NRAS WT (P01111 whole entry): as the sequence (P01111 whole entry Q61K) above, with K61Q counted along it
Sequence of NRAS WT (P62937 whole entry): as the sequence (P62937 whole entry) above

On to `CCn1c(-c2cccnc2[C@H](C)OC)c2c3cc(ccc31)-c1cc(O)cc(c1)C[C@H](NC(=O)[C@H](C(C)C)N(C)C(=O)[C@]1(C)CCCN1C(=O)[C@H]1CN1)C(=O)N1CCC[C@H](N1)C(=O)OCC(C)(C)C2` [Example 243], for which the IC50 was 10 to 100 nM against KRAS G12C; 100 to 1000 nM at KRAS Q61H; 100 to 1000 nM on KRAS G12D; 1000 to 10000 nM at NRAS Q61K; 10 to 100 nM against NRAS G12C; 100 to 1000 nM against KRAS G12V. Besides, the concentration for half-maximal inhibition (IC50) on KRAS G13C lay in the range of 100 to 1000 nM; on KRAS WT, 100 to 1000 nM; on NRAS WT it was 100 to 1000 nM; against KRAS G13D, 100 to 1000 nM; at NRAS Q61R, 1000 to 10000 nM; on KRAS G12S, 100 to 1000 nM. The EC50 in the assay on AsPC-1 (K-Ras G12D) is less than 5000 nM.
As to `CCn1c(-c2cccnc2[C@H](C)OC)c2c3cc(ccc31)-c1cc(O)cc(c1)C[C@H](NC(=O)[C@@H](C(C)C)N(C)C(=O)[C@@]1(C)CCCN1C(=O)[C@H]1CN1)C(=O)N1CCC[C@H](N1)C(=O)OCC(C)(C)C2` [Example 240], the IC50 was 100 to 1000 nM on KRAS G12C; 100 to 1000 nM against KRAS Q61H; 1000 to 10000 nM on KRAS G12D; more than 10000 nM at NRAS Q61K; 100 to 1000 nM on NRAS G12C; 1000 to 10000 nM against KRAS G12V. Also, the IC50 against KRAS G13C lay in the range of 1000 to 10000 nM; against KRAS WT, 100 to 1000 nM; against NRAS WT it was 1000 to 10000 nM; on KRAS G13D it was 1000 to 10000 nM; at NRAS Q61R, 1000 to 10000 nM; at KRAS G12S it was 1000 to 10000 nM. For the same molecule, the EC50 in the assay on AsPC-1 (K-Ras G12D) is less than 5000 nM.
Consider `CCn1c(-c2cccnc2[C@H](C)OC)c2c3cc(ccc31)-c1cc(O)cc(c1)C[C@H](NC(=O)[C@H](C(C)C)N(C)C(=O)[C@@]1(C)CCCN1C(=O)[C@@H]1CN1)C(=O)N1CCC[C@H](N1)C(=O)OCC(C)(C)C2` [Example 241], for which the IC50 is less than 10 nM at KRAS G12C; 10 to 100 nM at KRAS Q61H; 10 to 100 nM at KRAS G12D; 100 to 1000 nM on NRAS Q61K; less than 10 nM against NRAS G12C; 10 to 100 nM on KRAS G12V. The IC50 against KRAS G13C fell in the range of 10 to 100 nM; against KRAS WT it was 10 to 100 nM; against NRAS WT, 10 to 100 nM; against KRAS G13D, 10 to 100 nM; against NRAS Q61R, 100 to 1000 nM; against KRAS G12S, 10 to 100 nM. For the same molecule, in the assay on AsPC-1 (K-Ras G12D), the EC50 is less than 5000 nM.
With `CCn1c(-c2cccnc2[C@H](C)OC)c2c3cc(ccc31)-c1cc(O)cc(c1)C[C@H](NC(=O)[C@H](C(C)C)N(C)C(=O)[C@@]1(C)CCCN1C(=O)[C@H]1CN1)C(=O)N1CCC[C@H](N1)C(=O)OCC(C)(C)C2` [Example 239], the IC50 at KRAS G12C lay in the range of 10 to 100 nM; at KRAS Q61H, 10 to 100 nM; on KRAS G12D it was 100 to 1000 nM; against NRAS Q61K it was 100 to 1000 nM; at NRAS G12C it was 10 to 100 nM; against KRAS G12V, 10 to 100 nM. For the same molecule, the half-maximal inhibitory concentration (IC50) against KRAS G13C is 10 to 100 nM; against KRAS WT it was 10 to 100 nM; against NRAS WT, 10 to 100 nM; at KRAS G13D, 10 to 100 nM; against NRAS Q61R, 100 to 1000 nM; at KRAS G12S it was 10 to 100 nM. Also, the half-maximal effective concentration (EC50) in the assay with AsPC-1 (K-Ras G12D) is less than 5000 nM.
Take `CCn1c(-c2cccnc2[C@H](C)OC)c2c3cc(ccc31)-c1cc(O)cc(c1)C[C@H](NC(=O)[C@H](C(C)C)N(C)C(=O)[C@@H]1CO[C@H](C)CN1C(=O)[C@@H]1CN1)C(=O)N1CCC[C@H](N1)C(=O)OCC(C)(C)C2` [Example 249]: the IC50 against KRAS G12C is less than 10 nM; on KRAS Q61H, less than 10 nM; against KRAS G12D it was 10 to 100 nM; against NRAS Q61K it was 10 to 100 nM; against NRAS G12C it was less than 10 nM; at KRAS G12V, 10 to 100 nM. Moreover, the IC50 at KRAS G13C, on KRAS WT, at NRAS WT, against KRAS G13D, on NRAS Q61R and against KRAS G12S was 10 to 100 nM in each case.
